Molecular target: Protein farnesyltransferase (Homo sapiens, UniProt P49354+P49356)
Experiment: Inhibition of farnesyl transferase
Type: protein-complex assay

Compound: CC1(c2cccc3ccccc23)C(=O)N(CCCn2ccnc2)C(=O)N1Cc1cccc(C(F)(F)F)c1 (stereo not drawn)
- IC50: 1.7 µM

Compound: CSCC[C@H](NC(=O)CN1C(=O)N(Cc2c[nH]cn2)C(=O)C1(C)c1cccc2ccccc12)C(=O)O (stereo partly drawn)
- IC50: 61 µM

Compound: CSCc1ccc(CN2C(=O)N(CCCn3ccnc3)C(=O)C2(C)c2cccc3ccccc23)cc1 (stereo not drawn)
- IC50: 0.21 µM

Compound: CC1(c2cccc3ccccc23)C(=O)N(CCCn2ccnc2)C(=O)N1Cc1ccc(CNS(C)(=O)=O)cc1 (stereo not drawn)
- IC50: 0.35 µM

Compound: CC1(c2cccc3ccccc23)C(=O)N(CCCn2ccnc2)C(=O)N1Cc1ccc(S(C)(=O)=O)cc1 (stereo not drawn)
- IC50: 1.1 µM

Compound: CC1(c2cccc3ccccc23)C(=O)N(CCCn2ccnc2)C(=O)N1Cc1ccc(C(=O)O)cc1 (stereo not drawn)
- IC50: 0.2 µM

Compound: CSCC[C@H](NC(=O)CN1C(=O)N(CCc2cnc[nH]2)C(=O)C1(C)c1cccc2ccccc12)C(=O)O (stereo partly drawn)
- IC50: 4.8 µM

Compound: CC1(c2cccc3ccccc23)C(=O)N(CCCn2ccnc2)C(=O)N1Cc1ccccc1CNS(C)(=O)=O (stereo not drawn)
- IC50: 0.5 µM

Compound: COC(=O)[C@H](CCSC)NC(=O)CN1C(=O)N(CCc2cnc[nH]2)C(=O)C1(C)c1cccc2ccccc12 (stereo partly drawn)
- IC50: 2500 µM

Compound: CC1(c2cccc3ccccc23)C(=O)N(CCCn2ccnc2)C(=O)N1Cc1ccc(S(C)(=O)=O)c(C#N)c1 (stereo not drawn)
- IC50: 0.73 µM

Compound: CC1(c2cccc3ccccc23)C(=O)N(CCCn2ccnc2)C(=O)N1Cc1ccc(Br)cc1 (stereo not drawn)
- IC50: 0.16 µM

Compound: CC1(c2cccc3ccccc23)C(=O)N(CCCn2ccnc2)C(=O)N1Cc1ccc(Oc2ccccc2)cc1 (stereo not drawn)
- IC50: 0.75 µM

Compound: COC(=O)[C@H](CCSC)NC(=O)CN1C(=O)N(Cc2cnc[nH]2)C(=O)C1(C)c1cccc2ccccc12 (stereo partly drawn)
- IC50: 19000 µM

Compound: CC1(c2cccc3ccccc23)C(=O)N(CCCn2ccnc2)C(=O)N1Cc1cccc(CNS(C)(=O)=O)c1 (stereo not drawn)
- IC50: 1.2 µM

Compound: CC1(c2cccc3ccccc23)C(=O)N(CCCn2ccnc2)C(=O)N1Cc1ccc(C#N)cc1 (stereo not drawn)
- IC50: 0.9 µM

Compound: CC1(c2cccc3ccccc23)C(=O)N(CCCn2ccnc2)C(=O)N1Cc1cccc(Cl)c1 (stereo not drawn)
- IC50: 0.24 µM

Compound: CCOC(=O)CN1C(=O)N(CCCc2cncn2C)C(=O)C1(C)c1cccc2ccccc12 (stereo not drawn)
- IC50: 2.8 µM

Compound: CC1(c2cccc3ccccc23)NC(=O)N(CCCn2ccnc2)C1=O (stereo not drawn)
- IC50: 7.7 µM

Compound: CSc1ccc(CN2C(=O)N(CCCn3ccnc3)C(=O)C2(C)c2cccc3ccccc23)cc1C#N (stereo not drawn)
- IC50: 0.08 µM

Compound: CSCC[C@H](NC(=O)CN1C(=O)N(CCCc2c[nH]cn2)C(=O)C1(C)c1cccc2ccccc12)C(=O)O (stereo partly drawn)
- IC50: 0.8 µM

Compound: COC(=O)[C@H](CCSC)NC(=O)CN1C(=O)N(CCCc2cnc[nH]2)C(=O)C1(C)c1cccc2ccccc12 (stereo partly drawn)
- IC50: 500 µM

Compound: CC1(c2cccc3ccccc23)C(=O)N(CCCn2ccnc2)C(=O)N1Cc1cccc(Oc2ccccc2)c1 (stereo not drawn)
- IC50: 0.72 µM

Compound: CC1(c2cccc3ccccc23)C(=O)N(CCCn2ccnc2)C(=O)N1Cc1ccccc1C#N (stereo not drawn)
- IC50: 1.3 µM

Compound: CSc1ccc(CN2C(=O)N(CCCn3ccnc3)C(=O)C2(C)c2cccc3ccccc23)cc1 (stereo not drawn)
- IC50: 0.7 µM

Compound: CC1(c2cccc3ccccc23)C(=O)N(CCCn2ccnc2)C(=O)N1Cc1cccc(Br)c1 (stereo not drawn)
- IC50: 0.37 µM

Compound: CCOC(=O)CN1C(=O)N(CCCn2ccnc2)C(=O)C1(C)c1cccc2ccccc12 (stereo not drawn)
- IC50: 1 µM

Compound: CC1(c2cccc3ccccc23)NC(=O)N(CCCc2cnc[nH]2)C1=O (stereo not drawn)
- IC50: 40 µM

Compound: CC1(c2cccc3ccccc23)C(=O)N(CCCn2ccnc2)C(=O)N1Cc1cccc(C#N)c1 (stereo not drawn)
- IC50: 0.09 µM

From ChEMBL document CHEMBL1146930, “Hydantoin derivatives as non-peptidic inhibitors of Ras farnesyl transferase” (Bioorg Med Chem Lett, 2006)
